From patent US12097213B2, “Sequential treatment of cancers using 6-thio-dG, checkpoint inhibitors and radiation therapy” (The Board of Regents of the University of Texas System, priority 2020, dated 2024)

Key:
Assay type in all cases: in vivo, mouse
tumor-specific T cells = test: IFN-γ ELISPOT of splenocytes / draining lymph node cells; conditions: advanced MC38 tumors; stimulated with irradiated MC38 tumor cells
Protocol: IFN-γ enzyme-linked immunosorbent spot assay (ELISPOT). MC38 tumors were injected subcutaneously on the right flank of C57BL/6. For 6-thio-dG single treatment, 3 mg/kg 6-thio-dG was intraperitoneally given on days 7, 8 and 9; for PD-L1 blockade combination therapy in MC38 model, 3 mg/kg 6-thio-dG was given on day 10 and day 11, 50 μg PD-L1 was intraperitoneally injected on day 11. 7 days after last treatment, tumor draining lymphoid and spleen from tumor-bearing mice were collected and single-cell suspension was prepared. Irradiated MC38 tumor cells and control LLC tumor cells were used to re-stimulate the tumor-specific T cells. 1.5×10^5 draining lymph nodes cells or splenocytes and 7.5×10^4 irradiated tumor cells were co-cultured for 48 hrs, and ELISPOT assay was performed using the IFN-γ ELISPOT kit (BD Bioscience) according to the manufacturer's instructions. IFN-γ spots were enumerated with the CTL-ImmunoSpot® S6 Analyzer (Cellular Technology Limited).

MC38 tumor cells = test: MC38 tumor growth and treatment in mice
Protocol: (§1) Tumor growth and treatment. A total of 5×10^5 MC38, 5×10^5 CT26 or 1×10^6 LLC cells were inoculated subcutaneously into right dorsal flanks of the mice in 100 μL phosphate buffered saline (PBS). Tumor-bearing mice were randomly grouped into treatment groups when tumors grew to around 100 mm^3. For 6-thio-dG single treatment, 3 mg/kg 6-thio-dG was intraperitoneally given on days 7, 8 and 9 in MC38 tumor and LLC tumor and on days 5, 6, 7 for CT26 tumor. For CSF1R, NKL.1, CD4+ and CD8+ T cell depletion, 200 μg of antibodies were intraperitoneally injected 1 day before treatment initiation and then twice a week for 2 weeks. For PD-L1 blockade combination therapy in MC38 model, 6-thio-dG was given on day 10 and day 11, 50 μg PD-L1 was intraperitoneally injected on day 13 and 17. For PD-L1 blockade combination therapy in LLC model, 6-thio-dG was given on day 4, 5, 6, 10 and 11, 200 μg PD-L1 was intraperitoneally injected on day 8 and 13. Tumor volumes were measured by the length (a), width (b) and height (h) and calculated as tumor volume=abh/2.

[1] = test system: LLC murine lung tumor cells; test: LLC tumor growth and treatment in mice
Protocol: as §1, with “For 6-thio-dG single treatment, 3 mg/kg 6-thio-dG was intraperitoneally given on days 7, 8 and 9 in MC38 tumor and LLC tumor and on days 5, 6, 7 for CT26 tumor.” left out

anti-PD-L1: fully humanized, engineered monoclonal antibody of IgG1 isotype against PD-L1 (Atezolizumab) [reference compound]
tumor-specific T cell response in draining lymph nodes (IFN-γ production) (tumor-specific T cells): little effect
MC38 tumors in LLC cured mice (MC38 tumor cells; LLC cured mice injected with MC38): had no affect
tumor volume / tumor growth in advanced tumors (MC38 tumor cells; tumor sizes 150-200 mm^3, 6-thio-dG 3 mg/kg days 10, 11, 50 μg anti-PD-L1 days 13 and 17): difficult to control
tumor burden ([1]; PD-L1 blockade resistant LLC model, 6-thio-dG 3 mg/kg days 4, 5, 6, 10, 11, 200 μg anti-PD-L1 days 8 and 13): no therapeutic effect
tumor growth (FIG. 8A) ([1]; lewis lung carcinoma, three days 6-thio-dG followed two days later with anti-PD-L1): same rapid tumor growth
